Measurements reported in patent publication US7291627B2, “Dihydroimidazo[5.1-a]-beta-carboline derivatives, method for their preparation, and their application as a drug” (MACEF, priority 2001, dated 2007).

Test system: JA 657 chicks
Assay: Chick sleep/sedation test (IM injection, 90 minute observation)
Assay type: in vivo
Settings: for Sed (sedation time as % of the period) / TA (time to torpor between injection and first stage of sleep) / TS (duration of the first sleep) / Tsed (total sedation time over the period): 90 min observation; for TS (mins) Placebo diff'ce: extension of first sleep compared with test controls
Protocol: The dihydroimidazo[5,1-a]-β-carboline derivatives of the invention, in particular those in the form of the methyl sulfonate, (soluble), were tested in chicks, and certain compounds that were active in the chick were administered in single doses to six Beagle dogs of both sexes for a polysomnographic study of at least 4 hours duration.
JA 657 chicks from Couvoir Gauguet, 44 Le Pin, were accustomed for at least 6 days to an alternating program of light and darkness with 12 hours of daylight and 12 hours of darkness at a regulated temperature of 25±2° C. They were fed ad libitum and were placed under test compounds in a vivarium in groups of 3 individuals with a mean weight of 100±10 g on the day of the test. At that age in this species, there is no effective meningeal (hemato-encephalic) barrier. The test products were injected in 3 doses (1, 3 and 10 mg/kg) intramuscularly (IM) in solution or in an aqueous suspension (1 drop of Tween 80 per ml), each to two batches of 3 chicks which were observed over 90 minutes. For each test series (18 vivaria), there was at least one batch of negative control chicks receiving the same volume (0.2 ml IM) of water for injectable preparations.
During the 90 minute observation period, the chicks were strongly stimulated every 15 minutes by presenting a full feeding trough, and each 5 minute period was given a grade from among the following 5 states, corresponding to the state of alertness over that period:
Mobile, sitting alert, drowsy, asleep, sleep-like state. The parameters studied were the time to torpor (TA) passed between injection and the first stage of sleep, the duration of the first sleep (TS) and the total sedation time over the period (Tsed), expressed in minutes and as a % of the period (Sed).
To compare the results of tests carried out at different dates, the extension of the duration of the first sleep TS compared with the test controls was recorded.

Structure (SMILES): CS(=O)(=O)O.Cc1ncc2n1CCc1c-2[nH]c2ccccc12 [Example 12, 3-methyl-5,6-dihydroimidazo[5,1-a]-β-carboline methane sulfonate]
- Sed (sedation time as % of the period) (Dose: 1 mg/kg): 51.7%
- TA (time to torpor between injection and first stage of sleep) (Dose: 1 mg/kg): 10 min
- TS (duration of the first sleep) (Dose: 1 mg/kg): 39.5 min
- Tsed (total sedation time over the period) (Dose: 1 mg/kg): 46.5 min
- TS (mins) Placebo diff'ce (Dose: 1 mg/kg): 39 min
- Sed (sedation time as % of the period) (Dose: 3 mg/kg): 63.9%
- TA (time to torpor between injection and first stage of sleep) (Dose: 3 mg/kg): 3.5 min
- TS (duration of the first sleep) (Dose: 3 mg/kg): 42 min
- Tsed (total sedation time over the period) (Dose: 3 mg/kg): 57.5 min
- TS (mins) Placebo diff'ce (Dose: 3 mg/kg): 41.7 min
- Sed (sedation time as % of the period) (Dose: 10 mg/kg): 98.9%
- TA (time to torpor between injection and first stage of sleep) (Dose: 10 mg/kg): 1 min
- TS (duration of the first sleep) (Dose: 10 mg/kg): 89 min
- Tsed (total sedation time over the period) (Dose: 10 mg/kg): 89 min
- TS (mins) Placebo diff'ce (Dose: 10 mg/kg): 88.7 min

Structure (SMILES): CCCc1ncc2n1CCc1c-2[nH]c2ccc(OC)cc12 [Example 7, 8-methoxy-3-propyl-5,6-dihydroimidazo[5,1-a]-β-carboline]
- Sed (sedation time as % of the period) (Dose: 1 mg/kg): 41.4%
- TA (time to torpor between injection and first stage of sleep) (Dose: 1 mg/kg): 16.5 min
- TS (duration of the first sleep) (Dose: 1 mg/kg): 16 min
- Tsed (total sedation time over the period) (Dose: 1 mg/kg): 46 min
- TS (mins) Placebo diff'ce (Dose: 1 mg/kg): 16 min
- Sed (sedation time as % of the period) (Dose: 3 mg/kg): 41%
- TA (time to torpor between injection and first stage of sleep) (Dose: 3 mg/kg): 16.5 min
- TS (duration of the first sleep) (Dose: 3 mg/kg): 27 min
- Tsed (total sedation time over the period) (Dose: 3 mg/kg): 45.5 min
- TS (mins) Placebo diff'ce (Dose: 3 mg/kg): 27 min
- Sed (sedation time as % of the period) (Dose: 10 mg/kg): 48.2%
- TA (time to torpor between injection and first stage of sleep) (Dose: 10 mg/kg): 12.5 min
- TS (duration of the first sleep) (Dose: 10 mg/kg): 38.5 min
- Tsed (total sedation time over the period) (Dose: 10 mg/kg): 53.5 min
- TS (mins) Placebo diff'ce (Dose: 10 mg/kg): 38.5 min

Structure (SMILES): CS(=O)(=O)O.Cc1ncc2n1CCc1c-2[nH]c2ccc(O)cc12 [Example 11, 8-hydroxy-3-methyl-5,6-dihydroimidazo[5,1-a]-β-carboline methane sulfonate]
- Sed (sedation time as % of the period) (Dose: 1 mg/kg): 29.4%
- TA (time to torpor between injection and first stage of sleep) (Dose: 1 mg/kg): 40 min
- TS (duration of the first sleep) (Dose: 1 mg/kg): 0 min
- Tsed (total sedation time over the period) (Dose: 1 mg/kg): 26.5 min
- TS (mins) Placebo diff'ce (Dose: 1 mg/kg): -0.3 min
- Sed (sedation time as % of the period) (Dose: 3 mg/kg): 38.3%
- TA (time to torpor between injection and first stage of sleep) (Dose: 3 mg/kg): 15 min
- TS (duration of the first sleep) (Dose: 3 mg/kg): 7 min
- Tsed (total sedation time over the period) (Dose: 3 mg/kg): 34.5 min
- TS (mins) Placebo diff'ce (Dose: 3 mg/kg): 6.7 min
- Sed (sedation time as % of the period) (Dose: 10 mg/kg): 20.6%
- TA (time to torpor between injection and first stage of sleep) (Dose: 10 mg/kg): 6 min
- TS (duration of the first sleep) (Dose: 10 mg/kg): 9.5 min
- Tsed (total sedation time over the period) (Dose: 10 mg/kg): 18.5 min
- TS (mins) Placebo diff'ce (Dose: 10 mg/kg): 9 min

Structure (SMILES): CCCc1ncc2n1CCc1c-2n(C)c2ccc(OC)cc12.CS(=O)(=O)O [Example 8, 8-methoxy-11-methyl-3-propyl-5,6-dihydro-imidazo[5,1-a]-β-carboline methane sulfonate]
- Sed (sedation time as % of the period) (Dose: 1 mg/kg): 42.2%
- TA (time to torpor between injection and first stage of sleep) (Dose: 1 mg/kg): 16 min
- TS (duration of the first sleep) (Dose: 1 mg/kg): 21.5 min
- Tsed (total sedation time over the period) (Dose: 1 mg/kg): 38 min
- TS (mins) Placebo diff'ce (Dose: 1 mg/kg): 21 min
- Sed (sedation time as % of the period) (Dose: 3 mg/kg): 60%
- TA (time to torpor between injection and first stage of sleep) (Dose: 3 mg/kg): 8.5 min
- TS (duration of the first sleep) (Dose: 3 mg/kg): 33 min
- Tsed (total sedation time over the period) (Dose: 3 mg/kg): 54 min
- TS (mins) Placebo diff'ce (Dose: 3 mg/kg): 32.7 min
- Sed (sedation time as % of the period) (Dose: 10 mg/kg): 76.1%
- TA (time to torpor between injection and first stage of sleep) (Dose: 10 mg/kg): 5.5 min
- TS (duration of the first sleep) (Dose: 10 mg/kg): 41 min
- Tsed (total sedation time over the period) (Dose: 10 mg/kg): 68.5 min
- TS (mins) Placebo diff'ce (Dose: 10 mg/kg): 40.7 min

Structure (SMILES): CS(=O)(=O)O.Cc1ccc2[nH]c3c(c2c1)CCn1c-3cnc1C [Example 18, 3,8-dimethyl-5,6-dihydroimidazo[5,1-a]-β-carboline methane sulfonate]
- Sed (sedation time as % of the period) (Dose: 1 mg/kg): 69.4%
- TA (time to torpor between injection and first stage of sleep) (Dose: 1 mg/kg): 5 min
- TS (duration of the first sleep) (Dose: 1 mg/kg): 32.5 min
- Tsed (total sedation time over the period) (Dose: 1 mg/kg): 62.5 min
- TS (mins) Placebo diff'ce (Dose: 1 mg/kg): 24 min
- Sed (sedation time as % of the period) (Dose: 3 mg/kg): 63.9%
- TA (time to torpor between injection and first stage of sleep) (Dose: 3 mg/kg): 4.5 min
- TS (duration of the first sleep) (Dose: 3 mg/kg): 30.5 min
- Tsed (total sedation time over the period) (Dose: 3 mg/kg): 57.5 min
- TS (mins) Placebo diff'ce (Dose: 3 mg/kg): 22.5 min
- Sed (sedation time as % of the period) (Dose: 10 mg/kg): 90.6%
- TA (time to torpor between injection and first stage of sleep) (Dose: 10 mg/kg): 7.5 min
- TS (duration of the first sleep) (Dose: 10 mg/kg): 76 min
- Tsed (total sedation time over the period) (Dose: 10 mg/kg): 81.5 min
- TS (mins) Placebo diff'ce (Dose: 10 mg/kg): 68 min

Structure (SMILES): COc1ccc2c(c1)c1c(n2C)-c2cnc(C)n2CC1.CS(=O)(=O)O [Example 9, 8-methoxy-3,11-dimethyl-5,6-dihydroimidazo-[5,1-a]-β-carboline methane sulfonate]
- Sed (sedation time as % of the period) (Dose: 1 mg/kg): 27.2%
- TA (time to torpor between injection and first stage of sleep) (Dose: 1 mg/kg): 22 min
- TS (duration of the first sleep) (Dose: 1 mg/kg): 3 min
- Tsed (total sedation time over the period) (Dose: 1 mg/kg): 24.5 min
- TS (mins) Placebo diff'ce (Dose: 1 mg/kg): 2.8 min
- Sed (sedation time as % of the period) (Dose: 3 mg/kg): 29.4%
- TA (time to torpor between injection and first stage of sleep) (Dose: 3 mg/kg): 17.5 min
- TS (duration of the first sleep) (Dose: 3 mg/kg): 13.5 min
- Tsed (total sedation time over the period) (Dose: 3 mg/kg): 26.5 min
- TS (mins) Placebo diff'ce (Dose: 3 mg/kg): 13 min
- Sed (sedation time as % of the period) (Dose: 10 mg/kg): 42.8%
- TA (time to torpor between injection and first stage of sleep) (Dose: 10 mg/kg): 16.5 min
- TS (duration of the first sleep) (Dose: 10 mg/kg): 15.5 min
- Tsed (total sedation time over the period) (Dose: 10 mg/kg): 38.5 min
- TS (mins) Placebo diff'ce (Dose: 10 mg/kg): 15 min

Structure (SMILES): COc1ccc2[nH]c3c(c2c1)CCn1c-3cnc1-c1ccccc1 [Example 14]
- Sed (sedation time as % of the period) (Dose: 1 mg/kg): 63.5%
- TA (time to torpor between injection and first stage of sleep) (Dose: 1 mg/kg): 7 min
- TS (duration of the first sleep) (Dose: 1 mg/kg): 35.5 min
- Tsed (total sedation time over the period) (Dose: 1 mg/kg): 62.865 min
- TS (mins) Placebo diff'ce (Dose: 1 mg/kg): 32 min
- Sed (sedation time as % of the period) (Dose: 3 mg/kg): 68%
- TA (time to torpor between injection and first stage of sleep) (Dose: 3 mg/kg): 15 min
- TS (duration of the first sleep) (Dose: 3 mg/kg): 34 min
- Tsed (total sedation time over the period) (Dose: 3 mg/kg): 61.2 min
- TS (mins) Placebo diff'ce (Dose: 3 mg/kg): 31.5 min
- Sed (sedation time as % of the period) (Dose: 10 mg/kg): 70%
- TA (time to torpor between injection and first stage of sleep) (Dose: 10 mg/kg): 7 min
- TS (duration of the first sleep) (Dose: 10 mg/kg): 28 min
- Tsed (total sedation time over the period) (Dose: 10 mg/kg): 63 min
- TS (mins) Placebo diff'ce (Dose: 10 mg/kg): 25.5 min
